Source: PubChem BioAssay AID288 (DTP/NCI, 2004)
Records with an inconclusive call do not appear. Numbered stars: 1 amine (or outer) side, 2 acyl side, 3 side chain; on linkers, the order of the positions; unused ones are H or OH. Bridge positions count the residues as written; N and C are the ends. Square brackets hold non-standard residues; d marks the D form. Peptide text beside a SMILES is read from it. I, II: the chains in the order shown. * marks the point of attachment. ξ: configuration not given here. Quinaldoyl(3-OH,6-OMe) = COc1ccc2nc(C(=O)*)c(O)cc2c1; X2 = CC(=O)OC1CC=NN([*:1])C1C(=O)[*:2]; ξNMeVal(3-OH) = CNC(C(=O)O)C(C)(C)O; X3 = O=C(C1CCCNN1[*:1])[*:2]; Sar = CNCC(=O)O

Test system: BDF1 mice, M5076 sarcoma s.c., survival/tumor T/C
Experiment: NCI In Vivo Anticancer Drug Screen. Data for tumor model Sarcoma M5076 (subcutaneous) in B6D2F1 (BDF1) mice
Protocol: The antitumor activity of compounds was measured in mice bearing transplantable tumors. Survival or tumor size were measured and the results are expressed as the measurement made in the treated group (T) divided by the measurement made in the vehicle treated control group (C). The tumor model used in this assay is Sarcoma M5076 (subcutaneous) in B6D2F1 (BDF1) mice

[1] = endpoint: median survival time, dose: 50.0 mg/kg/injection, schedule: Q01DX009 (ip), vehicle: saline with Tween-80, higher = longer survival
[2] = endpoint: median survival time, dose: 100.0 mg/kg/injection, schedule: Q01DX009 (ip), vehicle: saline with Tween-80, higher = longer survival
[3] = endpoint: median survival time, dose: 200.0 mg/kg/injection, schedule: Q01DX009 (ip), vehicle: saline with Tween-80, higher = longer survival
[4] = endpoint: median tumor weight (est.), dose: 50.0 mg/kg/injection, schedule: Q01DX009 (ip), vehicle: saline with Tween-80, higher = larger tumour
[5] = endpoint: median tumor weight (est.), dose: 100.0 mg/kg/injection, schedule: Q01DX009 (ip), vehicle: saline with Tween-80, higher = larger tumour
[6] = endpoint: median tumor weight (est.), dose: 200.0 mg/kg/injection, schedule: Q01DX009 (ip), vehicle: saline with Tween-80, higher = larger tumour

O=C1Nc2cnc(Cl)nc2Nc2ccccc21
T/C [1]: 97 % of control
T/C [2]: 94 % of control
T/C [3]: 95 % of control
T/C [4]: 90 % of control
T/C [5]: 75 % of control
T/C [6]: 86 % of control

COc1ccc2nc(C(=O)NC3COC(=O)C(C(C)(C)O)N(C)C(=O)CN(C)C(=O)CNC(=O)C4CCCNN4C(=O)C(NC(=O)c4nc5ccc(OC)cc5cc4O)COC(=O)C(C(C)(C)O)N(C)C(=O)CN(C)C(=O)CNC(=O)C4C(OC(C)=O)CC=NN4C3=O)c(O)cc2c1 (centres undefined) (I: {Quinaldoyl(3-OH,6-OMe)}-S[X2]G[Sar][ξNMeVal(3-OH)] / II: {Quinaldoyl(3-OH,6-OMe)}-S[X3]G[Sar][ξNMeVal(3-OH)]; ester I:1-II:C, I:C-II:1; configuration not given here)
T/C (endpoint: median survival time, dose: 5.0 micrograms/kg/injection, schedule: Q01DX009 (ip), vehicle: Klucel (hydroxypropylcellulose) (HPC), higher = longer survival): 97 % of control
T/C (endpoint: median survival time, dose: 10.0 micrograms/kg/injection, schedule: Q01DX009 (ip), vehicle: Klucel (hydroxypropylcellulose) (HPC), higher = longer survival): 86 % of control
T/C (endpoint: median survival time, dose: 20.0 micrograms/kg/injection, schedule: Q01DX009 (ip), vehicle: Klucel (hydroxypropylcellulose) (HPC), higher = longer survival): 95 % of control
T/C (endpoint: median survival time, dose: 40.0 micrograms/kg/injection, schedule: Q01DX009 (ip), vehicle: Klucel (hydroxypropylcellulose) (HPC), higher = longer survival): 94 % of control
T/C (endpoint: median tumor weight (est.), dose: 5.0 micrograms/kg/injection, schedule: Q01DX009 (ip), vehicle: DMSO, higher = larger tumour): 90 % of control
T/C (endpoint: median tumor weight (est.), dose: 10.0 micrograms/kg/injection, schedule: Q01DX009 (ip), vehicle: DMSO, higher = larger tumour): 107 % of control
T/C (endpoint: median tumor weight (est.), dose: 20.0 micrograms/kg/injection, schedule: Q01DX009 (ip), vehicle: DMSO, higher = larger tumour): 117 % of control

C[c-]1[c-][c-][c-][c-]1.C[c-]1[c-][c-][c-][c-]1.[C-]#[O+].[C-]#[O+].[C-]#[O+].[C-]#[O+].[C-]#[O+].[C-]#[O+].[Mo].[Mo]
T/C [2]: 111 % of control
T/C [3]: 94 % of control

CCCCOc1ccc(-n2c(=O)[nH]c3ccccc3c2=O)cc1
T/C [1]: 101 % of control
T/C [2]: 94 % of control
T/C [3]: 101 % of control
T/C [4]: 97 % of control
T/C [5]: 100 % of control
T/C [6]: 105 % of control

Nc1ncnc2c1ccn2C1OC(CO)C(O)C1O (centres undefined)
T/C (endpoint: mean tumor weight, dose: 0.75 mg/kg/injection, schedule: Q02DX011 (ip), vehicle: saline, higher = larger tumour): 117 % of control
T/C (endpoint: mean tumor weight, dose: 1.5 mg/kg/injection, schedule: Q02DX011 (ip), vehicle: saline, higher = larger tumour): 101 % of control
T/C (endpoint: median tumor weight (est.), dose: 0.38 mg/kg/injection, schedule: Q02DX011 (ip), vehicle: saline, higher = larger tumour): 82 % of control
T/C (endpoint: median tumor weight (est.), dose: 0.75 mg/kg/injection, schedule: Q02DX011 (ip), vehicle: saline, higher = larger tumour): 168 % of control
T/C (endpoint: median tumor weight (est.), dose: 1.5 mg/kg/injection, schedule: Q02DX011 (ip), vehicle: saline, higher = larger tumour): 110 % of control

CS(=O)(=O)OCCCCOS(C)(=O)=O
T/C (endpoint: mean tumor weight, dose: 15.0 mg/kg/injection, schedule: Q02DX011 (ip), vehicle: Klucel (hydroxypropylcellulose) (HPC), higher = larger tumour): 56 % of control

O=C1c2ccccc2C(=O)c2c(NCCNCCO)ccc(NCCNCCO)c21
T/C (endpoint: median survival time, dose: 7.78 mg/kg/injection, schedule: Q04DX004 (ip), vehicle: saline, higher = longer survival): 100 % of control
T/C (endpoint: median survival time, dose: 7.78 mg/kg/injection, schedule: Q04DX004 (iv), vehicle: saline, higher = longer survival): 102 % of control
T/C (endpoint: median survival time, dose: 13.0 mg/kg/injection, schedule: Q04DX004 (ip), vehicle: saline, higher = longer survival): 96 % of control
T/C (endpoint: median survival time, dose: 13.0 mg/kg/injection, schedule: Q04DX004 (iv), vehicle: saline, higher = longer survival): 88 % of control
T/C (endpoint: median survival time, dose: 21.6 mg/kg/injection, schedule: Q04DX004 (ip), vehicle: saline, higher = longer survival): 90 % of control
T/C (endpoint: median survival time, dose: 21.6 mg/kg/injection, schedule: Q04DX004 (iv), vehicle: saline, higher = longer survival): 100 % of control
T/C (endpoint: median survival time, dose: 36.0 mg/kg/injection, schedule: Q04DX004 (ip), vehicle: saline, higher = longer survival): 103 % of control
